Data as given in US12156857B2, “Composition for promoting ketone body production” (Meiji Co., Ltd., priority 2016, dated 2024).

How the values were obtained:
Assay type in all cases: in vivo, Male Wistar rats
ketone body production [1] = experiment: Selection of amino acid promoting ketone body production: blood β-hydroxybutyric acid after amino acid plus MCT feeding; details: rats, until 6 hours; for % ΔAUC (%): % relative value of area under the blood concentration-curve ΔAUC of β-hydroxybutyric acid, control group = 100 / % ΔCmax (%): % relative value of maximum blood concentration ΔCmax of β-hydroxybutyric acid, control group = 100: overnight fasting, amino acid 1.0 mmol/kg oral, then caprylic triglyceride (MCT) 3.0 g/kg oral, control water + MCT; for both % ΔCmax and % ΔAUC of β-hydroxybutyric acid compared with control group fed with water: amino acid 1.0 mmol/kg oral + MCT 3.0 g/kg oral
Experimental: (§1) In the following Examples, the blood β-hydroxybutyric acid concentration was measured with a β-hydroxybutyric acid measuring instrument for self-inspection (Precision Xceed manufactured by Abbott).
In the following Examples, the promotion of ketone body production was evaluated as follows. Specifically, blood was collected from the caudal vein of rats under fasting to measure the blood concentration (mmol/L) of β-hydroxybutyric acid (bHB) as an index of the ketone body in the blood. The measured value was defined as an initial value (0 hours). The rats were grouped into a control group and an experimental group, and fed with test samples. Thereafter, the transition of the blood bHB concentration until after 6 hours from the initial value was graphed. A reference view for determining the maximum blood concentration (Cmax) and area under the blood concentration-curve (AUC) of bHB is shown in FIG. 1A. A value obtained by subtracting the measured value at the initial value (0 hours) from the measured value at the time of each measurement was calculated, and defined as an amount of change in blood β-hydroxybutyric acid concentration (ΔbHB concentration) (FIG. 1B). Then, for the amount of change in blood β-hydroxybutyric acid concentration (ΔbHB concentration), the maximum blood concentration (ΔCmax) and area under the blood concentration-curve (ΔAUC) until after 6 hours from the initial value (0 hours) were calculated (FIG. 1B).
A % relative value (% ΔCmax (%)) of the maximum blood concentration ΔCmax of β-hydroxybutyric acid for the experimental group when the maximum blood concentration ΔCmax of β-hydroxybutyric acid for the control group was assumed to be 100 was determined according to the following calculation formula.
A % relative value (% ΔAUC (%)) of the area under the blood concentration-curve ΔAUC of blood β-hydroxybutyric acid for the experimental group when the area under the blood concentration-curve ΔAUC of blood β-hydroxybutyric acid for the control group was assumed to be 100 was determined according to the following calculation formula.
Male Wistar rats (obtained from Japan SLC, Inc.) were acclimated for one week and then used for testing. Blood was collected from the caudal vein of the rats under overnight fasting to measure the blood concentration (mmol/L) of β-hydroxybutyric acid (bHB) as an index of the ketone body in the blood. The rats were grouped (n=8 for each group) so that the averages of the body weights and the β-hydroxybutyric acid concentrations for the respective groups were as equal as possible. Then, water was orally fed in an amount of 10 mL/kg of the body weight to the control group, and aqueous solutions of various amino acids (manufactured by Wako Pure Chemical Industries, Ltd.) were orally fed in an amount of 1.0 mmol/kg of the body weight to the experimental group. Immediately after feeding of water or each of the aqueous amino acid solutions, caprylic triglyceride (manufactured by Tokyo Chemical Industry Co., Ltd.), which is medium-chain fatty acid oil and fat (MCT), was orally fed in an amount of 3.0 g/kg of the body weight to the groups. Blood was collected from the caudal vein 1, 2, 3, 4, 5, and 6 hours after feeding of MCT to measure the blood β-hydroxybutyric acid concentration.

ketone body production [2] = experiment: Effect of citrulline or leucine on ketone body production in feeding of medium-chain fatty acid oil and fat; details: rats, four-hour fasting; amino acid 1.5 mmol/kg oral + caprylic triglyceride (MCT) 4.5 g/kg oral; until 6 hours
Experimental: as §1
(§2) In the following Examples, the promotion of ketone body production was evaluated as follows. Specifically, blood was collected from the caudal vein of rats under fasting to measure the blood concentration (mmol/L) of β-hydroxybutyric acid (bHB) as an index of the ketone body in the blood. The measured value was defined as an initial value (0 hours). The rats were grouped into a control group and an experimental group, and fed with test samples. Thereafter, the transition of the blood bHB concentration until after 6 hours from the initial value was graphed. […] A value obtained by subtracting the measured value at the initial value (0 hours) from the measured value at the time of each measurement was calculated, and defined as an amount of change in blood β-hydroxybutyric acid concentration (ΔbHB concentration) (FIG. 1B). Then, for the amount of change in blood β-hydroxybutyric acid concentration (ΔbHB concentration), the maximum blood concentration (ΔCmax) and area under the blood concentration-curve (ΔAUC) until after 6 hours from the initial value (0 hours) were calculated (FIG. 1B). […]

ketone body production [3] = experiment: Effect of citrulline amount on ketone body production in feeding of medium-chain fatty acid oil and fat; details: rats, four-hour fasting; citrulline 1.5, 2.25 or 3.0 mmol/kg + MCT 4.5 g/kg oral constant; until 6 hours
Experimental: as §1, §2

SMILES | % ΔAUC (%): % relative value of area under the blood concentration-curve ΔAUC of β-hydroxybutyric acid, control group = 100 (ketone body production [1]) [%] | % ΔCmax (%): % relative value of maximum blood concentration ΔCmax of β-hydroxybutyric acid, control group = 100 (ketone body production [1]) [%] | both % ΔCmax and % ΔAUC of β-hydroxybutyric acid compared with control group fed with water (ketone body production [1]) | ketone body production compared with MCT fed alone (ΔbHB, ΔAUC, ΔCmax, FIGS. 2 to 7) (ketone body production [2]) | amount of ketone bodies produced as a function of citrulline intake amount (% ΔAUC, % ΔCmax, FIGS. 8 and 9) (ketone body production [3])
N[C@@H](CC(=O)O)C(=O)O [Aspartic acids (Asp), aspartic acid] | 107.5 ± 30.7 | 108.8 ± 23.6 | higher than those for the control group |  | 
NC(=O)NCCC[C@H](N)C(=O)O [Citrulline (Cit), citrulline] | 105.4 ± 37.2 | 112.8 ± 25.5 | higher than those for the control group | the ketone body production was promoted | the amount of the ketone bodies produced varied according to the intake amount of citrulline (Cit)
N[C@@H](CS)C(=O)O [Cysteine (Cys), cysteine] | 128.3 ± 22.2 | 151.9 ± 23.8 | higher than those for the control group |  | 
NC(=O)CC[C@H](N)C(=O)O [Glutamine (Gln), glutamine] | 103.6 ± 30.7 | 121.2 ± 44.6 | higher than those for the control group |  | 
CC(C)C[C@H](N)C(=O)O [Leucine (Leu), leucine] | 110.5 ± 21.1 | 130.1 ± 31.8 | higher than those for the control group | the ketone body production was promoted | 
NCCS(=O)(=O)O [Taurine (Tau), taurine] | 103.6 ± 23.0 | 137.8 ± 21.8 | higher than those for the control group |  | 
